{"source": "ChEMBL document CHEMBL4373652", "about": "“Mechanism of thienopyridone and iminothienopyridinedione inhibition of protein phosphatases” (Medchemcomm, 2019)", "key": {"[1]": {"target": "T1, Tyrosine-protein phosphatase non-receptor type 1 (Homo sapiens) (UniProt P18031)", "T1 sequence (whole entry)": "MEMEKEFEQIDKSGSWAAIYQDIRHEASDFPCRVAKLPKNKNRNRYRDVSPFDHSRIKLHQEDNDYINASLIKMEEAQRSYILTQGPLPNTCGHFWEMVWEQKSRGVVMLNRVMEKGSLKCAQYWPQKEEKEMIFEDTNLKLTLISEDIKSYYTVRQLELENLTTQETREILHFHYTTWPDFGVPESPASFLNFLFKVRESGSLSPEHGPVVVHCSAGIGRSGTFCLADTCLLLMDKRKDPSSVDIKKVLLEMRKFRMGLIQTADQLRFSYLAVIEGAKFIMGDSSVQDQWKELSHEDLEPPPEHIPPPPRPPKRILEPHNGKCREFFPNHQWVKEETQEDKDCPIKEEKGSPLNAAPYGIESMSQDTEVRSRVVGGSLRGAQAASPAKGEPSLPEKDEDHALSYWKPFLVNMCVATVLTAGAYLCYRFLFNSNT", "assay": "Inhibition of human PTP1B at 25 nM using DiFMUP as substrate preincubated with enzyme prior to substrate addition by fluorescence based assay", "settings": "TDE = time-dependent effect"}, "[2]": {"target": "T2, Receptor-type tyrosine-protein phosphatase O (Homo sapiens) (UniProt Q16827)", "T2 sequence (whole entry)": "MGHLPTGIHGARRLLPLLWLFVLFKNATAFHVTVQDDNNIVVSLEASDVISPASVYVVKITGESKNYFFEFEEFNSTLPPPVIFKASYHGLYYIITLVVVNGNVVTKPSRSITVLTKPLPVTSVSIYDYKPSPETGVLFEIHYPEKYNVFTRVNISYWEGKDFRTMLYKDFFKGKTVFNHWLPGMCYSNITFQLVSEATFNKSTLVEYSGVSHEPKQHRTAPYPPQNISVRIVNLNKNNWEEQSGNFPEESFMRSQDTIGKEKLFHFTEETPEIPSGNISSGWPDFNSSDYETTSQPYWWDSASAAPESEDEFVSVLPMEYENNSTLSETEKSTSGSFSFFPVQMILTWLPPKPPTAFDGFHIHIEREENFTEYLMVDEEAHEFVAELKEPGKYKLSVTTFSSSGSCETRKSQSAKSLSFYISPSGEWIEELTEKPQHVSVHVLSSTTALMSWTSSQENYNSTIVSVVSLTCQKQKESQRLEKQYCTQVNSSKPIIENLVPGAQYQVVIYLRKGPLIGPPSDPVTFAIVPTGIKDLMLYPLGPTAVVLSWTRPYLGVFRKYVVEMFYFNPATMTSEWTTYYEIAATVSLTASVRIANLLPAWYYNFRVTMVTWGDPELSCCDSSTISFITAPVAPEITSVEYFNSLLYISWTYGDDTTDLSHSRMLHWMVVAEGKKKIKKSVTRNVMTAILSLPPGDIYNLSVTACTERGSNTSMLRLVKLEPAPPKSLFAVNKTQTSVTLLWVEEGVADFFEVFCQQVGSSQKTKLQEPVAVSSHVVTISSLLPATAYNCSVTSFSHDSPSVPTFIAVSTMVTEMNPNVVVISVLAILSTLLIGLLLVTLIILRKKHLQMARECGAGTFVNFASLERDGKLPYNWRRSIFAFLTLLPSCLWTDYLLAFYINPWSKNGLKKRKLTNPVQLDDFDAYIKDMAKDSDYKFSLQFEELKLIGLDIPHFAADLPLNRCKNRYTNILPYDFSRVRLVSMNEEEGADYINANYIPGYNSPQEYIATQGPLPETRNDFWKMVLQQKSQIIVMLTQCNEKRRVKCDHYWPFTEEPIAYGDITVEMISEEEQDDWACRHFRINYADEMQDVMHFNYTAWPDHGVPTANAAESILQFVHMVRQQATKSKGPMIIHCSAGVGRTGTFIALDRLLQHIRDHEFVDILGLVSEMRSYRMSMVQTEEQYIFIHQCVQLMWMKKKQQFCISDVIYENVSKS", "assay": "(§1) Inhibition of recombinant human N-terminal His-tagged PTPRO expressed in bacterial expression system assessed as enzyme residual activity at 2 uM using DiFMUP as substrate preincubated with enzyme for 2.5 hrs prior to substrate addition measured for 1 min by fluorescence based assay"}, "[3]": {"assay": "Induction of TCEP oxidation at 1 mM in 80% d6-acetone and 20% d6-DMSO incubated for 2 hrs by 15N-1H NMR spectroscopy relative to control"}, "[4]": {"assay": "Induction of TCEP oxidation assessed as increase in rate of reduction of resazurin at 5 uM incubated up to 2 hrs by resazurin based assay"}, "[5]": {"target": "T3, Receptor-type tyrosine-protein phosphatase C (Homo sapiens) (UniProt P08575)", "T3 sequence (whole entry)": "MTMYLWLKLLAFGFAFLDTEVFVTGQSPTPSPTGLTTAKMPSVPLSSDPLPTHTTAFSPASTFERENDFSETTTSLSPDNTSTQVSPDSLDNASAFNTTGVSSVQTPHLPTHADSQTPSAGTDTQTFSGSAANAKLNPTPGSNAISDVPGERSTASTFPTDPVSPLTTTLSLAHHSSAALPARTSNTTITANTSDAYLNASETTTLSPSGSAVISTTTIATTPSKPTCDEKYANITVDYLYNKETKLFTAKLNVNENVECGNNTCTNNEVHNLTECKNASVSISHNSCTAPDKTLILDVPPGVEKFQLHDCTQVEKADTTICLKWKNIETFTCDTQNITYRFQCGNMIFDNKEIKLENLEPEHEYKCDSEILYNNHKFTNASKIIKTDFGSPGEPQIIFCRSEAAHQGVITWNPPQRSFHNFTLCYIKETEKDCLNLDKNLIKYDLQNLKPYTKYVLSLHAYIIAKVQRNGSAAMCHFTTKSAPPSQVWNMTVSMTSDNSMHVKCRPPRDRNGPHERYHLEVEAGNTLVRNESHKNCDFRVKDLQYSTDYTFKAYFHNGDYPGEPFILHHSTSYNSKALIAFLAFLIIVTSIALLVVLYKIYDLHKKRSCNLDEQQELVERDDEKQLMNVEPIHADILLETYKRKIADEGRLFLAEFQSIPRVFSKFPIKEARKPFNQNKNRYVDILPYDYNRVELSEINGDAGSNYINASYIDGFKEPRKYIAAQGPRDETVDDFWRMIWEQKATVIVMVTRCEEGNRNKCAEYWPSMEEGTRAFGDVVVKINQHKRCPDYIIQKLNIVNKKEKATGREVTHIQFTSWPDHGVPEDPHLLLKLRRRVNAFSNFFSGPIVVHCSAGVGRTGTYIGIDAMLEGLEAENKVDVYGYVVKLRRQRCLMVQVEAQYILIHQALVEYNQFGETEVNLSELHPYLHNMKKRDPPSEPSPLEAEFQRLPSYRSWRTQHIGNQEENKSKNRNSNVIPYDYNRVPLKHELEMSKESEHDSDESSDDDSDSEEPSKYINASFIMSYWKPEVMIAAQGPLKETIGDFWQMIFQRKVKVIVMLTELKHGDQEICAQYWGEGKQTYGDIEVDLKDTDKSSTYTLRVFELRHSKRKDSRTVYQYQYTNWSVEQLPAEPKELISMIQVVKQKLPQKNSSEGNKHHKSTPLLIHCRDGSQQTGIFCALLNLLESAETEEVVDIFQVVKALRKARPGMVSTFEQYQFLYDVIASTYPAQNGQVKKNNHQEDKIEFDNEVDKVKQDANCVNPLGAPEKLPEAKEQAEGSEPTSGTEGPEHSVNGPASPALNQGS", "assay": "Inhibition of C-terminal 6His-tagged PTPRC (627-1228 residues) (unknown origin) expressed in Escherichia coli BL21 (DE3) at 2 uM using DiFMUP as substrate preincubated with enzyme and catalase for 2.5 hrs prior to substrate addition measured for 1 min by fluorescence based assay"}, "[6]": {"target": "T2, Receptor-type tyrosine-protein phosphatase O (Homo sapiens)", "assay": "as §1, with “rate of product DiFMU formed” for “enzyme residual activity”, “assay (reference value: 209.7 nM/sec)” for “assay”"}, "Homo sapiens": {"species": "Homo sapiens", "assay": "Inhibition of recombinant human C-terminal 6His-tagged PTPN22 G126V/V147G double mutant expressed in bacterial expression system assessed as rate of product DiFMU formed at 2 uM using DiFMUP as substrate preincubated with enzyme for 2.5 hrs followed by substrate addition measured for 1 min by fluorescence based assay (reference value: 11.9 nM/sec)"}, "[7]": {"assay": "Induction of glutathione oxidation at 1 mM incubated for 2 hrs in 80% d6-DMSO and 20% D2O by 15N-1H NMR spectroscopy relative to control"}, "Mus musculus": {"species": "Mus musculus", "assay": "Inhibition of mouse His-tagged PRL3 C49A mutant at 0.6 uM using DiFMUP as substrate preincubated with enzyme for 10 mins prior to substrate addition by fluorescence based assay relative to control"}, "[8]": {"target": "Protein tyrosine phosphatase type IVA 3 (Mus musculus) (UniProt Q9D658)", "sequence (Q9D658 whole entry)": "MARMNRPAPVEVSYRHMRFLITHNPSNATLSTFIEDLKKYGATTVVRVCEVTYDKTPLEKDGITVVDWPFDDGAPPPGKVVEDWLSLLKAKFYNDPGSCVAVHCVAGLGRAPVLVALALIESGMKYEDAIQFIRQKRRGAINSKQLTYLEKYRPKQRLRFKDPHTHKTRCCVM", "assay": "Inhibition of mouse His-tagged wild type PRL3 at 0.6 uM using DiFMUP as substrate preincubated with enzyme for 10 mins prior to substrate addition by fluorescence based assay relative to control"}, "[9]": {"assay": "Induction of TCEP oxidation assessed as increase in rate of reduction of resazurin at 5 uM after 3 to 5 secs by resazurin based assay"}}, "note": "Activity calls are given as the source filed them. The rule behind the calls is not given here."}
{"molecule": "N=C1C(=O)NC(=O)c2cc(-c3ccccc3)sc21", "values": [{"measurement": "inhibition", "setting": "[1]", "value": "Tde"}, {"measurement": "Activity", "setting": "[2]", "value": 7.3, "unit": "%"}, {"measurement": "fold change (FC)", "setting": "[3]", "value": 20}, {"measurement": "Activity", "setting": "[4]", "value": "Active"}, {"measurement": "inhibition", "setting": "[5]", "value": "inactive"}, {"measurement": "Activity", "setting": "[6]", "value": 15.3, "unit": "nM/s"}, {"measurement": "Activity", "setting": "Homo sapiens", "value": 0.3, "unit": "nM/s"}]}
{"molecule": "Nc1c[nH]c(=O)c2cc(-c3ccccc3)sc12", "values": [{"measurement": "Activity", "setting": "[7]", "value": 70, "unit": "%"}, {"measurement": "inhibition", "setting": "Mus musculus", "value": 10, "unit": "%"}, {"measurement": "inhibition", "setting": "[8]", "value": 55, "unit": "%"}, {"measurement": "inhibition", "setting": "[1]", "value": "Tde"}, {"measurement": "fold change (FC)", "setting": "[3]", "value": 5}, {"measurement": "Activity", "setting": "[4]", "value": "Active"}, {"measurement": "Activity", "setting": "[9]", "value": "Active"}]}
